Source: patent US6586188B1, “Method for identification of compounds that bind to β-tubulin and stimulate insulin secretion” (Biovitrum AB, priority 1999, dated 2003)

Assays:
β-cells [1] = assay: Dynamics of insulin release from column perifused β-cells; format: cell-based, ob/ob mice; conditions: for increase in insulin secretion: 1 μM glibenclamide in the presence of 5 μM nocodazole; for basal level of insulin secretion: 5 μM nocodazole (30 min) or 25 μM Taxol (15 min and throughout)
Description: (§1) Staining of microtubules with an antibody against tubulin in β-cells pretreated with vehicle, nocodazole or taxol (a). Data are representative of three determinations. Effect of nocodazole (b) and taxol (c) on the dynamics of insulin release from column perifused β-cells. Cells were incubated with 5 μM nocodazole for 30 min or 25 μM taxol for 15 min prior to starting perifusion of the cells. Taxol was present during the whole experiment. The control cells were incubated with their respective vehicle solutions. Protocols were initiated at the times indicated in the figure with either 1 μM glibenclamide or 15 mM glucose. The data represents the mean+SEM of four experiments.
(§2) Ob/ob mice were obtained from a locally bread colony at the animal facility within the Karolinska Institute, Stockholm, Sweden. The ob/ob mice were starved overnight. The animals were decapitated, the pancreas was excised from the abdominal cavity and pancreatic β-cells were isolated after collagenase digestion as previously described (Lemmark, A, (1974) Diabetologica 10, 431-438; Nilsson, T. et al. (1987) Biochem. J. 248, 329-336). The cells were kept overnight in RPMI 1640 medium supplemented with 11 mM glucose, 10% FCS, 100 μg/ml streptomycin and 100 IU/ml penicillin at 37° C. in a humidified atmosphere of 5% CO2 in air.
The basal medium used for isolation and for conducting the experiments was a buffer containing 125 mM NaCl; 5.9 mM KCl; 1.3 mM CaCl2; 1.2 mM MgCl2; and 25 mM HEPES (pH 7.4). BSA was added to the medium at the concentration of 1 mg/ml. The dynamics of insulin release were studied by perifusing β-cell aggregates mixed with Bio-Gel P4 polyacrylamide beads (BioRad, Richmond, Calif.), in a 0.5 ml column at 37° C. (Kanatsuna, T. et al. (1981) Diabetes 30, 231-234). The flow rate was 0.2 ml/min. Two-min fractions were collected and insulin content was analyzed by radioimmunoassay.
(§3) Cells were incubated with 5 μM nocodazole for 30 min or 25 μM taxol for 15 min prior to starting perifusion of the cells. Taxol was present during the whole experiment. The control cells were incubated with their respective vehicle solutions. Protocols were initiated at the times indicated in FIG. 3 with either 1 μM glibenclamide or 15 mM glucose. The data represent the mean±SEM of four experiments.

pancreatic β-cells = assay: Binding of [125I]glibenclamide to intact β-cells and subcellular fractions, UV cross-linking, SDS-PAGE, autoradiography; set-up: species or system ob/ob mice
Description: as §2
Binding of [^125I]glibenclamide (Amersham, UK) was performed in intact β-cells and in subcellular fraction derived therefrom. Isolated pancreatic islets from ob/ob mice (250-300) were homogenized in 300 μl buffer containing (in mM): HEPES 20, MgCl2 1, EGTA 1, EDTA 1, PMSF 1, protease inhibitors (leupeptin, aprotinin, pepstatin, antipain) 0.5 μg/ml in Eppendorf tubes using a motor pestle homogenizer. The homogenized material was centrifuged (800×g for 10 min) and the resultant pellet was resuspended again in 200 μl of homogenization buffer and centrifuged as above. […] This material was further analyzed by SDS-PAGE separation and autoradiography (FIG. 1b). […]

[2] = test system: Tubulin from bovine brain; assay: Tubulin polymerization in vitro (optical density at 340 nm); format: biochemical; conditions: 0.17 mM glibenclamide, 2.9 mg/ml tubulin, versus DMSO control
Description: Glibenclamide accelerates microtubule growth. (a): Experimental data showing the increase in optical density at 340 nm, resulting from tubulin polymerization in vitro, as a function of time. Microtubule growth was induced by increasing the temperature from 15° C. (at t=0) to 35° C. The concentration of bovine brain tubulin was 2.9 mg/ml and the buffer solution contain 80 mM Pipes, 1 mM MgCl2, 1 mM EGTA, 1 mM GTP, 2.1% DMSO and 10% glycerol at pH 6.9. The black symbols indicate the presence of 0.17 mM glibenclamide whereas the gray symbols represent the controls in its absence. The polymerization was followed simultaneously for one pair at the time, with each pair being a glibenclamide sample and a control, to ensure comparisons are made on identical protein samples. The data presented is representative of four experiments. (b): The rate of tubulin polymerization as measured by the change in OD with time (dOD/dt) as a function of time. The experimental conditions were the same as in (a). Black lines indicate the presence of glibenclamide and gray lines its absence. […]
Tubulin from bovine brain was purchased from Cytoskeleton Inc. in aliquots of 1 mg lyophilized protein. […] The experiment was then started by altering the multicell holder set temperature to 35° C. and the absorbance at 340 nm was measured as a function of time. […]

β-tubulin = assay: Confocal microscopy co-localization of BODIPY FL glibenclamide and anti β-tubulin antibody in β-cells; format: cell-based, ob/ob mice; conditions: primary cultures of β-cells, BODIPY FL glibenclamide staining
Description: Further analysis of sulfonylureas binding to β-tubulin was performed using confocal microscopy in primary cultures of β-cells obtained from ob/ob mice. Isolated β-cells in culture were incubated in the presence or absence of different agonists for 3 min at 23° C. The incubation time was terminated by fixation of the cells with 4% formaldehyde in PBS for 10 min at room temperature. After rinsing twice with PBS, cells were incubated in acetone at −20° C. for 5 min and then quenched with PBS containing 1% BSA for 30 min. BODIPY® FL glibenclamide was purchased from Molecular Probes, Inc., Catalog Number B-7439; http://www.probes.com). The green-fluorescent BODIPY® FL fluorophore has excitation/emission maxima ˜503/512 nm. Staining with BODIPY® FL glibenclamide, primary anti β-tubulin antibody (Amersham, UK) and secondary Texas Red®-conjugated antibody (Molecular Probes Inc.) was performed at room temperature for 1 h. After rinsing with PBS the coverslips were mounted (SlowFade light, Molecular Probes, Eugene, Oreg.) and examined using a confocal laser scanning microscope (Leica TCS NT, Leica Lasertechnik GmbH, Heidelberg, Germany). Excitation wavelengths 488 nm and 568 nm were used. The confocal microscope was equipped with an Ar/Kr laser, a double dicroic mirror for rhodamine/fluorescein and a 63× lens (Leica PL APO 63×/1.32×0.6 oil). […]

β-cells [3] = assay: Staining of microtubules with an antibody against tubulin in pretreated β-cells; format: cell-based, ob/ob mice; conditions: 5 μM nocodazole or 25 μM Taxol
Description: as §1, §3

[4] = test system: isolated rat islets of Langerhans; conditions: cited from earlier work

Row | SMILES | increase in insulin secretion (β-cells [1]; 3 mM glucose) [fold] | increase in insulin secretion (β-cells [1]; 15 mM glucose) | proteins associated with binding, cytosolic fraction (pancreatic β-cells) | rate of change in absorbance (rate of tubulin polymerization) ([2]; 15° C. to 35° C.) | extent of tubulin polymerization [2] | co-localization with β-tubulin (β-tubulin) | basal level of insulin secretion (β-cells [1]) | changes in microtubule organization (β-cells [3]) | effect on glucose-stimulated insulin secretion [4] | effect on increase in insulin secretion elicited by 1 μM glibenclamide (β-cells [1]; 25 μM Taxol, 3 mM and 15 mM glucose)
1 | COc1ccc(Cl)cc1C(=O)NCCc1ccc(S(=O)(=O)NC(=O)NC2CCCCC2)cc1 [glibenclamide, 5-Chloro-N-[2-[4-[[[(cyclohexylamino)carbonyl]amino]sulfonyl]phenyl]ethyl]-2-methoxybenzamide] | 5 | one-fold increase | associated with two proteins having a molecular mass of approximately 47 and 65 kDa | faster | not a strong influence | indicated an interaction between glibenclamide and β-tubulin | – | – | – | –
2 | COC(=O)Nc1nc2ccc(C(=O)c3cccs3)cc2[nH]1 [nocodazole] | – | – | – | – | – | – | did not affect | nor did they induce visible changes | inhibit | –
3 | CC(=O)O[C@H]1C(=O)[C@@]2(C)[C@H]([C@H](OC(=O)c3ccccc3)[C@]3(O)C[C@H](OC(=O)[C@H](O)[C@@H](NC(=O)c4ccccc4)c4ccccc4)C(C)=C1C3(C)C)[C@]1(OC(C)=O)CO[C@@H]1C[C@@H]2O [Taxol] | – | – | – | – | – | – | did not affect | nor did they induce visible changes | inhibit | prevented the increase
